Reference: patent publication US20230078820A1, “FE[…] TREATMENT OF DEMYELINATING DISEASES AND CONDITIONS” (ZOGENIX INTERNATIONAL LIMITED, priority 2021, published 2023)

Columns and labels:
[1] = system: SCN1a+/− (het) mice; experiment: Kaplan Meier estimation of survival in SCN1a+/− (het) mice; type: in vivo, mouse; conditions: P1-P40 SCN1a+/− (het) mice, compared to both placebo and diazepam treatment; FIG. 6
Text: (§1) Epilepsy is increasingly recognized as a disease of white matter pathology and damage, see Hatton, S. N. et al [Epilepsy Currents 2021 21:27-29]. To test whether fenfluramine reduced pathology and damage to myelin, a mouse model of Dravet syndrome was used. […] Heterozygous Dravet animals used in the studies reported in Examples 2 and 3 are Scn1atm1Kea 50% C57BL/6J, 50% 129S6/SvEvTac background strain mice generated as described in Miller, A. R. et al. [Genes Brain Behav. 2014 February; 13(2): 163-172]. Briefly, a heterozygous Scn1a+/− null allele was generated by targeted deletion of the first coding exon in TL1 ES cells (12956/SvEvTac). These mice were established and maintained as a co-isogenic strain on the 12956/SvEvTac (129) background. […] P ranges, stated as, e.g. P35-P37, indicate the days postnatal of the study animals Normal axonodendritic, axonosomatic and axonoaxonic synaptic pruning occurs in all mice and peaks at postnatal P21. Postnatal ages for the study animals were chosen to avoid periods of high natural demyelination and microglial activity.

[2] = system: SCN1a+/− (Dravet) mice; experiment: DMBP (degraded myelin basic protein) immunostaining score of myelin debris in brain sections, murine model of Dravet syndrome; type: in vivo, mouse; conditions: for DMBP Avg Score, Ctx / DMBP Avg Score, Hipp / DMBP Avg Score, Hipp + Ctx: Het mice, s.c. once daily P7 to P35-P37, FFA 15 mg/kg, diazepam 10 mg/kg; for DMBP Avg Score, Ctx: cortex; for DMBP Avg Score, Ctx / DMBP Avg Score, Hipp: scale 0-5; for DMBP Avg Score, Hipp: hippocampus, p = 0.00015 Het FFA vs Het vehicle; for DMBP Avg Score, Hipp + Ctx: sum of hippocampus and cortex, maximum 10, p = 0.01 Het FFA vs Het vehicle; for effect on myelin debris (D-MBP) score vs vehicle (saline): hippocampus and cortex of P35-P37 SCN1a+/− mice, 2-tail unequal variance t-test, FIG. 2
Text: as §1
(§2) In Heterozygous Animals, drug or saline sham treatment began at age P7 (i.e., 7 days after birth) with subcutaneous administration of drug or saline injected via insulin syringes.
(§3) At day 7 all pups in each litter were administered an injection volume of 10 μl/g body weight once per day containing: 1) fenfluramine at 15 mg/kg; 2) diazepam at 10 mg/kg; or 3) vehicle (0.9% saline solution), each injection volume based on body weight.
(§4) The administration of each intervention continued every day until age P35-P37, at which time animals were sacrificed to obtain blood and brain tissues which amounted to an aggregate of 28 to 30 days of once daily dosing.
Mice at the end of the dosing period were isoflurane anaesthetized and blood was drawn through cardiac ventricular puncture without perforating the heart or vessels for subsequent perfusion fixation. Blood was processed for plasma and stored at −80C. After creating an incision in the hepatic circulation to allow perfusates an exit point, mice were flushed of remaining blood with 6 mL ice cold phosphate buffered saline through the left ventricle of the heart. Mice were then perfusion fixed with an additional 6 mL of ice cold 4% paraformaldehyde before carefully harvesting right brains into 10% neutral buffered formalin for 24 hours before transferring into phosphate buffered saline with 0.02% sodium azide as an antimicrobial preservative. Right brains were then embedded to paraffin blocks and processed as formalin fixed, paraffin embedded (FFPE) 5 μm thick sagittal sections on glass slides. These FFPE tissues were immunostained, processed, and imaged for degraded myelin and inflammatory microglia.
DMBP antibody (“degraded” Myelin Basic Protein, Anti-Myelin Basic Protein, Millipore Sigma antibody, formerly Sigma AB5864) was applied at 1:1000 dilution with no antigen retrieval. This antibody preferentially detects debris of myelin degradation in human samples without cross reacting to normal myelin. Vector ImPRESS-AP alkaline phosphatase conjugated anti-rabbit IgG (Vector Laboratories) was applied in the secondary detection step with Vector Blue AP substrate as the chromogen. Nuclear Fast Red was applied as a non-specific tissue counterstain before dehydration, clearing, and coverslip mounting steps. Vector Blue signals within finished slides were visualized with the DAPI (UV) excitation/emission channel on an Echo Revolve fluorescence microscope under the 20× objective. Non-specific Nuclear Fast Red staining was visualized under the Texas Red excitation/emission channel to provide anatomical contexts to the overlaid DMBP signals.

[3] = target: T1, sigma-1 receptor (Homo sapiens, UniProt Q99720); experiment: 3H-fenfluramine binding to proteins expressed on reverse-transfected HEK293 cell arrays (phosphorimaging); conditions: tritium labeled fenfluramine, 1 or 5 micromolar in confirmation; HEK293 cells
T1 construct: arrays of expression vectors, encoding full-length human plasma membrane and tethered secreted proteins; expressed in transfected cells; host or cells: HEK293
Experimental: (§5) Briefly, arrays of expression vectors, encoding full-length human plasma membrane and tethered secreted proteins, were spotted onto coated slides, then HEK293 cells were grown over the top of the spots and became reverse-transfected resulting in cell surface expression of each respective protein at distinct slide locations. Tritium labeled fenfluramine was applied and specific binding analyzed and confirmed using a phosphorimaging technique. […] Confirmation was achieved by repeating the study with vectors encoding RNF43 and sigma-1 receptor proteins spotted onto slides, upon which HEK293 cells were reverse-transfected. Identical slides were treated before or after cell fixation with 1 micromolar or 5 micromolar 3H-fenfluramine, 20 nanomolar 3H-naloxone, or no compound (n=2 slides per treatment).

[4] = target: T2, RNF43 (Homo sapiens, UniProt Q68DV7); experiment: as above; conditions: tritium labeled fenfluramine, 1 or 5 micromolar in confirmation; HEK293 cells; FIG. 1
T2 construct: arrays of expression vectors, encoding full-length human plasma membrane and tethered secreted proteins; expressed in transfected cells; host or cells: HEK293
T2 sequence (Q68DV7 24-783): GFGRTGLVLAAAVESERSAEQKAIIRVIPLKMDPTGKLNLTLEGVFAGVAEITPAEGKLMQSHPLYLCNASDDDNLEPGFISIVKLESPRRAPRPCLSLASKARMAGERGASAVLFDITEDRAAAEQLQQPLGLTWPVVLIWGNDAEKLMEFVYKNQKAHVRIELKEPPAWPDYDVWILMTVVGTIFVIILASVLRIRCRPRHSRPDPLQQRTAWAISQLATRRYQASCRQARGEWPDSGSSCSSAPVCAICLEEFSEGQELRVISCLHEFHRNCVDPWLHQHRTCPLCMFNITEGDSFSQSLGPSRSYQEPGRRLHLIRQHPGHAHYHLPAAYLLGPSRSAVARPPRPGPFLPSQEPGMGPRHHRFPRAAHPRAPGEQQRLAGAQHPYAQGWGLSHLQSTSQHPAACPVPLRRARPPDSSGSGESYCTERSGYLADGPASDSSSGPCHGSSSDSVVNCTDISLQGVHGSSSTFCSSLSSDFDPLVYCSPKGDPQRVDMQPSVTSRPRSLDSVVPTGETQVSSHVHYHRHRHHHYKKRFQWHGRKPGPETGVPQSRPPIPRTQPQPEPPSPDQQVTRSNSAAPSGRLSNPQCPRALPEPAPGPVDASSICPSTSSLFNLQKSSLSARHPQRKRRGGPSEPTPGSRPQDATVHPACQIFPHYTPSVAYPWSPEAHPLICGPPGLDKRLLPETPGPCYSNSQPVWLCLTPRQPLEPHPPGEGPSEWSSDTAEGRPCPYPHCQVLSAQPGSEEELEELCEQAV
Experimental: as §5

[5] = system: SCN1a+/− (Dravet) mice; experiment: CD11b+ activated microglia immunostaining score in brain sections, murine model of Dravet syndrome; type: in vivo, mouse; conditions: for CD11b Avg Score, Genu / CD11b Avg Score, PP / CD11b Avg Score, PP + Genu: Het mice, s.c. once daily P7 to P35-P37, FFA 15 mg/kg, diazepam 10 mg/kg; for CD11b Avg Score, Genu: genu of corpus callosum; for CD11b Avg Score, Genu / CD11b Avg Score, PP: scale 0-5; for CD11b Avg Score, PP: perforant pathway of hippocampus; for CD11b Avg Score, PP + Genu: sum of perforant pathway and genu, maximum 10, p = 0.05 Het FFA vs Het vehicle; for effect on CD11b+ activated microglia vs vehicle (saline): genu and perforant pathway of P35-P37 SCN1a+/− mice, 2-tail unequal variance t-test, FIG. 4
Text: as §1, §2, §3, §4
Vector ImPRESS-AP alkaline phosphatase conjugated anti-rabbit IgG (Vector Laboratories) was applied in the secondary detection step with Vector Blue AP substrate as the chromogen. Nuclear Fast Red was applied as a non-specific tissue counterstain before dehydration, clearing, and coverslip mounting steps. Vector Blue signals within finished slides were visualized with the DAPI (UV) excitation/emission channel on an Echo Revolve fluorescence microscope under the 20× objective. Non-specific Nuclear Fast Red staining was visualized under the Texas Red excitation/emission channel to provide anatomical contexts to the overlaid CD11b signals. Perfusion fixed sagittal 5 um FFPE brain sections within approximately 300 um from the midline of the right brains of the P35-P37 wildtype and SCN1A heterozygous 50% B6/50% 129S6 mice from the Fintepla/Diazepam/Saline comparator study were examined for CD11b+ microglia.
A 0-5 ascending pathologist scale was applied in scoring CD11b+ microglia in the perforant pathway of the hippocampus following the hippocampal fissure and murine white matter in the front knob, “genu,” of the corpus callosum (CC). The CC is an elongated midline structure composed of 200-800 million horizontal interconnecting cortical areas. The mature CC contains both myelinated and unmyelinated fibers as well as glial cells (astrocytes and oligodendrocytes), and neurons. The human CC has been divided into five anatomical regions, which include from front to back, the rostrum, the genu, the body or trunk-often subdivided into anterior, middle and posterior body-the isthmus, and the splenium. Most neurons in the callosal fibers release excitatory amino acids (glutamate or aspartate), however a small proportion of GABAergic neurons have been identified in mammals
The scores of the genu and perforant pathway were summed for each animal for a maximum possible score of 10. This antibody preferentially detects activated microglia over surveilling, quiescent microglia across human, rat, and mouse species. Normal, healthy mice have more basal microglial activation in the CNS compared to the normal human CNS.

T1 sequence (Q99720 whole entry): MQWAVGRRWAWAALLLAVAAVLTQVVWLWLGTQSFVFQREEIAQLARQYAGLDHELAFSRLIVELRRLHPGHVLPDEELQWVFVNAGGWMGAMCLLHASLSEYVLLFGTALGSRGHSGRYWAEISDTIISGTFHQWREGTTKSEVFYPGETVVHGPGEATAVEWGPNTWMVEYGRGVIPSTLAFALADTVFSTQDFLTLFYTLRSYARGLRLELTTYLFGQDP

SMILES | probability of survival over time [1] | DMBP Avg Score, Ctx [2] | DMBP Avg Score, Hipp [2] | DMBP Avg Score, Hipp + Ctx [2] | effect on myelin debris (D-MBP) score vs vehicle (saline) [2] | binding interaction with sigma-1 [3] | binding interaction with RNF43 [4] | CD11b Avg Score, Genu [5] | CD11b Avg Score, PP [5] | CD11b Avg Score, PP + Genu [5] | effect on CD11b+ activated microglia vs vehicle (saline) [5]
CCNC(C)Cc1cccc(C(F)(F)F)c1 (racemic) [FFA, (RS)-N-ethyl-1-[3-(trifluoromethyl)phenyl]propan-2-amine] | increases the probability of survival | 2.54 | 2.62 | 5.15 | significantly reduced the myelin debris (D-MBP) score | interactions were identified in the primary screen | interactions were identified in the primary screen | 2.54 | 2.77 | 5.31 | reduced activated microglia
CN1C(=O)CN=C(c2ccccc2)c2cc(Cl)ccc21 [Diazepam, diazepam] | – | 2.44 | 3.22 | 5.67 | not significant | – | – | 3.00 | 3.67 | 6.67 | not significant
